These results are taken from ChEMBL document CHEMBL1201862, “PubChem BioAssay data set” (2004).

The structures appear in SMILES notation.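 A five-concentration, 48-hour dose response in 96-well plates underlies each endpoint, interpolated linearly between surrounding concentrations. Here, GI50 denotes the concentration required for 50% inhibition of growth.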 Calls of active or inactive are those of the source. Cut-off read from the data, not from the text of the source: active = GI50 up to about 1.1 µM and inactive = higher. A value given as a limit tells only on which side of the number the result lay.

Test systems include 786-0; ACHN; CCRF-CEM; HCT-116; HL-60; KM12; MCF7; MDA-MB-435; MDA-N; Malme-3M; OVCAR-3; SK-MEL-5; SNB-19; SW-620; T47D; UACC-257; UO-31; DU-145; SK-MEL-28; SNB-75.
Holding throughout (experiment): NCI anticancer screen, dose series, 48 h

With `C/C=C/[C@H]1O[C@@](OC)([C@@H](C)[C@H](O)[C@H](C)[C@H]2OC(=O)/C(OC)=C/C(C)=C/[C@@H](C)[C@@H](O)[C@@H](C)[C@@H](O)[C@H](C)C/C(C)=C/C=C/[C@@H]2OC)CC(OC2CC(O)C(OC(N)=O)C(C)O2)[C@@H]1C` (stereo partly drawn), the GI50 in the assay on 786-0, in the assay with ACHN, in the assay on CCRF-CEM, in the assay on HCT-116, with HL-60 and in the assay with KM12 was < 0.01 µM (active) in each case. The GI50 in the assay with MCF7, in the assay on MDA-MB-435, with MDA-N, in the assay on Malme-3M, in the assay with OVCAR-3 and in the assay with SK-MEL-5 was < 0.01 µM (active) each time. The GI50 in the assay with SNB-19 is 2.9 µM (inactive); in the assay with SW-620, < 0.01 µM (active); in the assay on T47D, < 0.01 µM (active); in the assay with UACC-257 it was < 0.01 µM (active); in the assay with UO-31, < 0.01 µM (active).
For the compound `N#CC(c1ccc(O)cc1)N1CCN(C(C#N)c2ccc(O)cc2)CC1` (stereo not drawn), the GI50 was > 64.1 µM (inactive) with 786-0; > 100 µM (inactive) in the assay with ACHN; > 100 µM (inactive) in the assay with CCRF-CEM; > 51.8 µM (inactive) in the assay with DU-145; > 100 µM (inactive) with HCT-116; > 100 µM (inactive) in the assay on HL-60. The GI50 in the assay on KM12 was > 100 µM (inactive); with MCF7, > 100 µM (inactive); in the assay on MDA-MB-435 it was > 100 µM (inactive); in the assay on Malme-3M, > 100 µM (inactive); in the assay with OVCAR-3 it was > 100 µM (inactive); in the assay on SK-MEL-28 it was 67.3 µM (inactive). The GI50 in the assay on SK-MEL-5 is > 100 µM (inactive); in the assay with SNB-19, 24.9 µM (inactive); in the assay on SNB-75, 19 µM (inactive); with SW-620, > 100 µM (inactive); with T47D, 39.5 µM (inactive); with UACC-257 it was > 100 µM (inactive). For the same compound, the GI50 in the assay with UO-31 is > 100 µM (inactive).
Take `O=S(=O)(O)c1ccc2c(/N=N/c3ccccc3Cl)c(O)ccc2c1`: the GI50 in the assay with 786-0, with ACHN, in the assay with CCRF-CEM, in the assay with DU-145, in the assay with HCT-116 and in the assay with KM12 was > 100 µM (inactive) in each case. Also, the GI50 with MDA-MB-435, in the assay on MDA-N, with Malme-3M, in the assay on OVCAR-3, in the assay on SK-MEL-28 and in the assay with SK-MEL-5 was > 100 µM (inactive) throughout. In addition, the GI50 in the assay on SNB-19, in the assay on SNB-75, in the assay with SW-620, in the assay with T47D, in the assay on UACC-257 and in the assay on UO-31 was > 100 µM (inactive) in each case.
Regarding `Cc1ccc(S(=O)(=O)CC2CCCn3c2c(C#N)c2ccccc23)cc1` (stereo not drawn), the GI50 with 786-0, in the assay on ACHN, with CCRF-CEM, in the assay with DU-145, in the assay with HCT-116 and in the assay on KM12 was > 100 µM (inactive) each time. In addition, the GI50 in the assay with MCF7, in the assay on MDA-MB-435, in the assay on OVCAR-3, in the assay with SK-MEL-28, with SK-MEL-5 and in the assay with SNB-19 was > 100 µM (inactive) in each case. The GI50 in the assay with SNB-75 is > 100 µM (inactive); in the assay on SW-620, > 100 µM (inactive); with T47D, 73.3 µM (inactive); with UACC-257, > 100 µM (inactive); in the assay on UO-31, > 100 µM (inactive).
Consider `N#CC1=C(N2CCCC2)NC(=O)CC1=O`, for which the GI50 in the assay on 786-0, in the assay on ACHN, with CCRF-CEM, in the assay on DU-145, in the assay on HCT-116 and in the assay with HL-60 was > 100 µM (inactive) throughout. Besides, the GI50 in the assay on KM12, in the assay with MDA-MB-435, in the assay with MDA-N, in the assay with Malme-3M, with OVCAR-3 and with SK-MEL-28 was > 100 µM (inactive) throughout. The GI50 in the assay on SK-MEL-5 was > 100 µM (inactive); with SNB-19, > 100 µM (inactive); with SW-620, > 100 µM (inactive); with T47D it was 74 µM (inactive); in the assay with UACC-257 it was > 100 µM (inactive); in the assay with UO-31, > 100 µM (inactive).
Take `Cc1nc(Nc2ccc(Cl)c(Cl)c2)sc1C(=O)/C=C/c1ccc2c(c1)OCO2`: the GI50 with 786-0 was 20.2 µM (inactive); with ACHN it was 16.8 µM (inactive); with CCRF-CEM, 31.8 µM (inactive); in the assay on DU-145 it was > 10 µM (inactive); with HCT-116, 20.6 µM (inactive); in the assay on HL-60, 18.9 µM (inactive). The GI50 in the assay with KM12 is 20.9 µM (inactive); with MCF7 it was 25.1 µM (inactive); in the assay on MDA-MB-435, 20.5 µM (inactive); with Malme-3M, 31.9 µM (inactive); with OVCAR-3 it was 10.4 µM (inactive); in the assay with SK-MEL-28, 31.7 µM (inactive). The GI50 with SK-MEL-5 was 33.4 µM (inactive); with SNB-19 it was 21.5 µM (inactive); in the assay on SNB-75, 14.4 µM (inactive); in the assay on SW-620 it was 40.5 µM (inactive); in the assay with T47D, 42.5 µM (inactive); in the assay on UACC-257 it was 31.6 µM (inactive). Besides, the GI50 in the assay with UO-31 was 16.9 µM (inactive).
For `CC(=O)OC(C)(C)[C@H]1O[C@]23O[C@]1(C)C[C@@H](C)[C@@H]2[C@@]1(C)CC[C@@]24C[C@@]25CC[C@H](O[C@@H]2OC[C@@H](O)[C@H](O)[C@H]2O)C(C)(C)[C@@H]5CC[C@H]4[C@]1(C)[C@H]3O`, the GI50 is 6.38 µM (inactive) in the assay with 786-0; 6.07 µM (inactive) in the assay on ACHN; 5.94 µM (inactive) with CCRF-CEM; 4.34 µM (inactive) in the assay with DU-145; 6.67 µM (inactive) with HCT-116; 2.03 µM (inactive) in the assay with HL-60. For the same compound, the GI50 with KM12 was 3.35 µM (inactive); in the assay with MCF7 it was 5.38 µM (inactive); in the assay on MDA-MB-435, 8.73 µM (inactive); in the assay on Malme-3M, 22.8 µM (inactive); in the assay with OVCAR-3 it was 3.59 µM (inactive); in the assay with SK-MEL-28, 7.08 µM (inactive). Further, the GI50 in the assay with SK-MEL-5 was 10.3 µM (inactive); with SNB-19, 6.27 µM (inactive); in the assay with SNB-75, 17.1 µM (inactive); with SW-620, 4.34 µM (inactive); in the assay on T47D it was 17.6 µM (inactive); in the assay with UACC-257 it was 18.8 µM (inactive). Besides, in the assay on UO-31, the GI50 is 14.6 µM (inactive).
As to `CN(CCN(C)C(=S)NN)C(=S)NN`, the GI50 in the assay with 786-0, in the assay with ACHN, in the assay on CCRF-CEM, in the assay on DU-145, with HCT-116 and in the assay with HL-60 was > 100 µM (inactive) throughout. The GI50 with KM12, in the assay with MDA-MB-435, in the assay on MDA-N, in the assay with Malme-3M, with OVCAR-3 and in the assay with SK-MEL-28 was > 100 µM (inactive) each time. For the same compound, the GI50 in the assay with SK-MEL-5, in the assay on SNB-19, with SNB-75, with SW-620, in the assay with T47D and in the assay on UACC-257 was > 100 µM (inactive) in each case. Also, the GI50 in the assay on UO-31 is > 100 µM (inactive).
For `CC1(C)CC[C@]2(C(=O)O)CC[C@]3(C)[C@H](C(=O)C=C4[C@@]5(C)C=C(C#N)C(=O)C(C)(C)[C@@H]5CC[C@]43C)[C@@H]2C1` [BARDOXOLONE], the GI50 in the assay with 786-0 was 0.16 µM (active); in the assay with ACHN, 0.543 µM (active); in the assay with CCRF-CEM, 0.22 µM (active); with DU-145, 0.508 µM (active); in the assay with HCT-116, 0.294 µM (active); with HL-60, 0.205 µM (active). Moreover, the GI50 in the assay on KM12 is 0.279 µM (active); in the assay with MCF7, 0.265 µM (active); in the assay on MDA-MB-435 it was 0.537 µM (active); in the assay on Malme-3M it was 0.224 µM (active); in the assay on OVCAR-3, 0.102 µM (active); in the assay with SK-MEL-28 it was 0.16 µM (active). In addition, the GI50 was 0.258 µM (active) in the assay on SK-MEL-5; 0.303 µM (active) in the assay on SNB-19; 0.45 µM (active) in the assay with SNB-75; 0.492 µM (active) in the assay on SW-620; 0.414 µM (active) in the assay on T47D; 1.14 µM (inactive) with UACC-257. For the same compound, in the assay on UO-31, the GI50 is 1.06 µM (active).
With `CCOC(=O)/C1=C(\C)N(c2ccc(C)cc2)C(=O)c2ccccc2C(=O)c2c(O)ccc(O)c21`, the GI50 in the assay on 786-0 was 18.2 µM (inactive); in the assay on ACHN it was 14.2 µM (inactive); with CCRF-CEM, 20.6 µM (inactive); in the assay with DU-145 it was 32.2 µM (inactive); in the assay with HCT-116 it was 19.5 µM (inactive); in the assay with HL-60, 19.1 µM (inactive). The GI50 is 23 µM (inactive) with KM12; 15.2 µM (inactive) with MCF7; 18.5 µM (inactive) in the assay with MDA-MB-435; 18.1 µM (inactive) with Malme-3M; 17.8 µM (inactive) in the assay on OVCAR-3; 16.3 µM (inactive) in the assay with SK-MEL-5. Moreover, the GI50 with SNB-19 is 47.5 µM (inactive); in the assay with SNB-75 it was 0.634 µM (active); in the assay on SW-620, 27.6 µM (inactive); in the assay on T47D, 13.4 µM (inactive); in the assay with UACC-257, 15.8 µM (inactive); in the assay with UO-31, 27.7 µM (inactive).
